# Earlier results in patent US9045800B2, “Methods and compositions for identifying, classifying and monitoring subject having Bcl-2 family inhibitor-resistant tumors and cancers” (AbbVie Inc., priority 2009, dated 2015).
# Experiments:
# [1] = tested on: solid tumors; settings: literature statement, no dose or model printed
# [2] = tested on: human cancer cell lines (SCLC and lymphoma cell lines)
smiles,measurement,setting,value
"CN(C)CC[C@H](CSc1ccccc1)Nc1ccc(S(=O)(=O)NC(=O)c2ccc(N3CCN(Cc4ccccc4-c4ccc(Cl)cc4)CC3)cc2)cc1[N+](=O)[O-] [ABT-737, N-(4-(4-((4′-chloro(1,1′-biphenyl)-2-yl)methyl)piperazin-1-yl)benzoyl)-4-(((1R)-3-(dimethylamino)-1-((phenylsulfanyl)methyl)propyl)amino)-3-nitrobenzenesulfonamide]",effect on solid tumors,[1],induce regression of solid tumors
same,potency against a diverse panel of human cancer cell lines,[2],selective potency against SCLC and lymphoma cell lines
